Earlier results, collected in PubChem BioAssay AID1259409 (Chemical Carcinogenesis Research Information System (CCRIS), 2018).

Test system: rodent chemically induced tumor inhibition, incidence and multiplicity
Experiment: CCRIS tumor inhibitor studies

For `COc1cc([C@@H]2Oc3cc([C@H]4Oc5cc(O)cc(O)c5C(=O)[C@@H]4O)ccc3O[C@H]2CO)ccc1O`, the “tumour outcome (control, treated, inhibition, significance)” value (Carcinogen: 1,2-DIMETHYLHYDRAZINE, 540-73-8, Dose [Inhibitor]: 0, 0.1% IN DIET FOR 32 WK BEGINNING AT 24 D OF AGE (STUDY DURATION: 32 WK), Route [Inhibitor]: ORAL, Species: RAT, Strain/Sex: SPRAGUE-DAWLEY/MALE, Target Tissue: Type of Lesion: COLON: ADENOCARCINOMA, Dose [Carcinogen]: 20 MG/KG 1/WK FOR 15 WK BEGINNING ON D 37, Promoter: NONE USED) is listed as 19/22 (86%), 11/16 (69%), 20%, not calculated, the “tumour outcome (control, treated, inhibition, significance)” value (Carcinogen: 1,2-DIMETHYLHYDRAZINE, 540-73-8, Dose [Inhibitor]: 0, 0.1% IN DIET FOR 32 WK BEGINNING AT 24 D OF AGE (STUDY DURATION: 32 WK), Route [Inhibitor]: ORAL, Species: RAT, Strain/Sex: SPRAGUE-DAWLEY/MALE, Target Tissue: Type of Lesion: SMALL INTESTINE: ADENOCARCINOMA, Dose [Carcinogen]: 20 MG/KG 1/WK FOR 15 WK BEGINNING ON D 37, Promoter: NONE USED) is listed as 18/22 (82%), 9/16 (56%), 32%, not calculated and the “tumour outcome (control, treated, inhibition, significance)” value (Carcinogen: N-BUTYL-N-(4-HYDROXYBUTYL)NITROSAMINE, 3817-11-6, Dose [Inhibitor]: 0, 1000 PPM IN DIET FOR 8 WK (STUDY DURATION: 32 WK), Route [Inhibitor]: ORAL, Species: MOUSE, Strain/Sex: ICR/MALE, Target Tissue: Type of Lesion: URINARY BLADDER: PAPILLOMA, Dose [Carcinogen]: 500 PPM IN DRINKING WATER FOR 6 WK BEGINNING 1 WK AFTER FIRST INHIBITOR DOSE, Promoter: NONE USED) is listed as 2/44 (5%), 1/34 (3%), 40%, not significant. For the same compound, the “tumour outcome (control, treated, inhibition, significance)” value (Carcinogen: N-BUTYL-N-(4-HYDROXYBUTYL)NITROSAMINE, 3817-11-6, Dose [Inhibitor]: 0, 1000 PPM IN DIET FOR 8 WK (STUDY DURATION: 32 WK), Route [Inhibitor]: ORAL, Species: MOUSE, Strain/Sex: ICR/MALE, Target Tissue: Type of Lesion: URINARY BLADDER: TRANSITIONAL CELL CARCINOMA, Dose [Carcinogen]: 500 PPM IN DRINKING WATER FOR 6 WK BEGINNING 1 WK AFTER FIRST INHIBITOR DOSE, Promoter: NONE USED) was 17/44 (39%), 4/34 (12%), 69%, p< 0.01, the outcome (Carcinogen: N-BUTYL-N-(4-HYDROXYBUTYL)NITROSAMINE, 3817-11-6, Dose [Inhibitor]: 0, 1000 PPM IN DIET FOR 24 WK BEGINNING 1 WK POST FINAL CARCINOGEN DOSE (STUDY DURATION: 32 WK), Route [Inhibitor]: ORAL, Species: MOUSE, Strain/Sex: ICR/MALE, Target Tissue: Type of Lesion: URINARY BLADDER: PAPILLOMA, Dose [Carcinogen]: 500 PPM IN DRINKING WATER FOR 6 WK BEGINNING 1 WK AFTER FIRST INHIBITOR DOSE, Promoter: NONE USED) was 2/44 (5), 5/30 (17%), -240%, not significant and the “tumour outcome (control, treated, inhibition, significance)” value (Carcinogen: N-BUTYL-N-(4-HYDROXYBUTYL)NITROSAMINE, 3817-11-6, Dose [Inhibitor]: 0, 1000 PPM IN DIET FOR 24 WK BEGINNING 1 WK POST FINAL CARCINOGEN DOSE (STUDY DURATION: 32 WK), Route [Inhibitor]: ORAL, Species: MOUSE, Strain/Sex: ICR/MALE, Target Tissue: Type of Lesion: URINARY BLADDER: TRANSITIONAL CELL CARCINOMA, Dose [Carcinogen]: 500 PPM IN DRINKING WATER FOR 6 WK BEGINNING 1 WK AFTER FIRST INHIBITOR DOSE, Promoter: NONE USED) was 17/44 (39%), 5/30 (17%), 56%, p< 0.05. The outcome (Carcinogen: N-Butyl-N-(4-hydroxybutyl)nitrosamine, 3817-11-6, Dose [Inhibitor]: 200 mg/kg bw 1 wk before carcinogen, dose duration 51 wk, study duration 56 wk, Route [Inhibitor]: Oral (gavage) 5 d/wk, Species: Mouse, Strain/Sex: ICR/Male, Target Tissue: Type of Lesion: Urinary Bladder: carcinoma, Dose [Carcinogen]: 0, 0.5% in drinking water for 6 wk, Promoter: None) was 52%, 7.7%, p=0.001.
